Data as given in US9695155B2, “Herbicidal substituted pyrimidinyloxy benzene compounds” (E. I. DU PONT DE NEMOURS AND COMPANY, priority 2013, dated 2017).

How the values were obtained:
[1] = test system: Russian thistle; experiment: Test D postemergence; type: in vivo, Salsola kali
Source text: (§1) Seeds of plant species selected from bluegrass (annual bluegrass, Poa annua), blackgrass (Alopecurus myosuroides), canarygrass (littleseed canarygrass, Phalaris minor), chickweed (common chickweed, Stellaria media), galium (catchweed bedstraw, Galium aparine), bromegrass, downy (downy bromegrass, Bromus tectorum), field poppy (Papaver rhoeas), field violet (Viola arvensis), green foxtail (Setaria viridis), deadnettle (henbit deadnettle, Lamium amplexicaule), Italian ryegrass (Lolium multiflorum), kochia (Kochia scoparia), lambsquarters (Chenopodium album), oilseed rape (Brassica napus), pigweed (Amaranthus retroflexus), chamomile (scentless chamomile, Matricaria inodora), Russian thistle (Salsola kali), speedwell (bird's-eye speedwell, Veronica persica), spring barley (Hordeum vulgare), spring wheat (Triticum aestivum), wild buckwheat (Polygonum convolvulus), wild mustard (Sinapis arvensis), wild oat (Avena fatua), wild radish (Raphanus raphanistrum), windgrass (Apera spica-venti), winter barley (Hordeum vulgare), and winter wheat (Triticum aestivum) were planted into a silt loam soil and treated preemergence with test chemicals formulated in a non-phytotoxic solvent mixture which included a surfactant.
(§2) At the same time, these species were planted in pots containing Redi-Earth® planting medium (Scotts Company, 14111 Scottslawn Road, Marysville, Ohio 43041) comprising spaghnum peat moss, vermiculite, wetting agent and starter nutrients and treated with postemergence applications of the test chemicals formulated in the same manner. Plants ranged in height from 2 to 18 cm (1- to 4-leaf stage). Treated plants and controls were maintained in a controlled growth environment for 7 to 21 days after which time all species were compared to controls and visually evaluated. Plant response ratings, summarized in Table D, are based on a scale of 0 to 100 where 0 is no effect and 100 is complete control. A dash (-) response means no test result.

[2] = test system: oilseed rape; experiment: Test D postemergence; type: in vivo, Brassica napus; conditions: for plant injury at 16 g/ha / plant injury at 31 g/ha / plant injury at 62 g/ha / plant injury at 125 g/ha: Brassica napus, post-emergence; for plant injury at 16 g/ha: scale 0-100, read-out: Plant response rating, Oilseed Rape; for plant injury at 31 g/ha / plant injury at 62 g/ha / plant injury at 125 g/ha: read-out: Plant response rating, Oilseed Rape
Source text: as §1, §2

[3] = test system: wild buckwheat; experiment: Test D preemergence; type: in vivo, Polygonum convolvulus; conditions: for pest or weed control at 16 g/ha / pest or weed control at 31 g/ha / pest or weed control at 62 g/ha / pest or weed control at 125 g/ha: Fallopia convolvulus, pre-emergence; for pest or weed control at 16 g/ha: read-out: Plant response rating, Buckwheat, Wild; for pest or weed control at 31 g/ha / pest or weed control at 62 g/ha / pest or weed control at 125 g/ha: scale 0-100, read-out: Plant response rating, Buckwheat, Wild
Source text: as §1, §2

[4] = test system: Russian thistle; experiment: Test D preemergence; type: in vivo, Salsola kali; set-up: key: 0 = no effect, 100 = complete control
Source text: as §1, §2

[5] = test system: field violet; experiment: Test D postemergence; type: in vivo, Viola arvensis; conditions: for pest or weed control at 31 g/ha / pest or weed control at 62 g/ha / pest or weed control at 125 g/ha: read-out: Plant response rating, Field Violet
Source text: as §1, §2

[6] = test system: horseweed; experiment: Test E postemergence; type: in vivo, Conyza canadensis
Source text: Seeds of plant species selected from corn (Zea mays), soybean (Glycine max), velvetleaf (Abutilon theophrasti), lambsquarters (Chenopodium album), wild poinsettia (Euphorbia heterophylla), palmer pigweed (Amaranthus palmeri), waterhemp (common waterhemp, Amaranthus rudis), surinam grass (Brachiaria decumbens), large (Lg) crabgrass (Digitaria sanguinalis), Brazilian crabgrass (Digitaria horizontalis), fall panicum (Panicum dichotomiflorum), giant foxtail (Setaria faberii), green foxtail (Setaria viridis), goosegrass (Eleusine indica), johnsongrass (Sorghum halepense), ragweed (common ragweed, Ambrosia elatior), barnyardgrass (Echinochloa crus-galli), sandbur (southern sandbur, Cenchrus echinatus), arrowleaf sida (Sida rhombifolia), Italian ryegrass (Lolium multiflorum), dayflower (Virginia (VA) dayflower, Commelina virginica), field bindweed (Convolvulus arvensis), morningglory (Ipomoea coccinea), nightshade (eastern black nightshade, Solanum ptycanthum), kochia (Kochia scoparia), yellow nutsedge (Cyperus esculentus), cocklebur (common cocklebur, Xanthium strumarium), smartweed (ladysthumb smartweed, and hairy beggarticks (Bidens pilosa), were planted into a silt loam soil and treated preemergence with test chemicals formulated in a non-phytotoxic solvent mixture which included a surfactant.
At the same time, plants from these crop and weed species and also horseweed (Canada horseweed, Conyza canadensis), waterhemp_RES1, (ALS & Triazine resistant common waterhemp, Amaranthus rudis), and waterhemp_RES2, (ALS & HPPD resistant common waterhemp, Amaranthus rudis) were planted in pots containing Redi-Earth® planting medium (Scotts Company, 14111 Scottslawn Road, Marysville, Ohio 43041) comprising spaghnum peat moss, vermiculite, wetting agent and starter nutrients were treated with postemergence applications of test chemicals formulated in the same manner. Plants ranged in height from 2 to 18 cm for postemergence treatments (1- to 4-leaf stage). Treated plants and controls were maintained in a greenhouse for 14 to 21 days, after which time all species were compared to controls and visually evaluated. Plant response ratings, summarized in Table E, are based on a scale of 0 to 100 where 0 is no effect and 100 is complete control. A dash (-) response means no test result.

[7] = test system: Italian ryegrass; experiment: Test F preemergence; type: in vivo, Lolium multiflorum; conditions: 21 days, scale 0 to 100
Source text: Seeds of plant species selected from bermudagrass (Cynodon dactylon), surinam grass (Brachiaria decumbens), large (Lg) crabgrass (Digitaria sanguinalis), crabgrass, naked (naked crabgrass, Digitaria nuda), foxtail, green (green foxtail, Setaria viridis), johnsongrass (Sorghum halepense), kochia (Kochia scoparia), morningglory (pitted morningglory, Ipomoea lacunosa), nutsedge, purple (purple nutsedge, Cyperus rotundus), ragweed (common ragweed, Ambrosia elatior), mustard, black (black mustard, Brassica nigra), guineagrass (Panicum maximum), dallisgrass (Paspalum dilatatum), barnyardgrass (Echinochloa crus-galli), sandbur (southern sandbur, Cenchrus echinatus), sowthistle (common sowthistle, Sonchus oleraceous), Italian ryegrass (Lolium multiflorum), signalgrass (broadleaf signalgrass, Brachiaria platyphylla), dayflower (Virginia (VA) dayflower, Commelina virginica), bluegrass (annual bluegrass, Poa annua), quackgrass (Elytrigia repens), mallow (common mallow, Malva sylvestris), buckwheat, wild (wild buckwheat, Polygonum convolvulus), leafy spurge (Euphorbia esula), chickweed (common chickweed, Stellaria media), wild poinsettia (Euphorbia heterophylla), and pigweed (Amaranthus retroflexus) were planted into a blend of loam soil and sand and treated preemergence with test chemicals formulated in a non-phytotoxic solvent mixture which included a surfactant.
Treated plants and controls were maintained in a greenhouse for 21 days, after which time all species were compared to controls and visually evaluated. Plant response ratings, summarized in Table F, are based on a scale of 0 to 100 where 0 is no effect and 100 is complete control. A dash (-) response means no test result.

[8] = 31 g ai/ha, scale 0 to 100 (0 no effect, 100 complete control)
[9] = 62 g ai/ha, scale 0 to 100 (0 no effect, 100 complete control)
[10] = 125 g ai/ha, scale 0 to 100 (0 no effect, 100 complete control)
[11] = 16 g ai/ha, scale 0 (no effect) to 100 (complete control)
[12] = 31 g ai/ha, scale 0 (no effect) to 100 (complete control)
[13] = Viola arvensis, post-emergence, 31 g ai/ha, scale 0 to 100 (0 no effect, 100 complete control)
[14] = Viola arvensis, post-emergence, 62 g ai/ha, scale 0 to 100 (0 no effect, 100 complete control)
[15] = Viola arvensis, post-emergence, 125 g ai/ha, scale 0 to 100 (0 no effect, 100 complete control)

Row | SMILES | Plant response rating, Russian Thistle ([1]; 16 g ai/ha, scale 0-100) | Plant response rating, Russian Thistle [1, 8] | Plant response rating, Russian Thistle [1, 9] | Plant response rating, Russian Thistle [1, 10] | plant injury at 16 g/ha ([2]; 16 g ai/ha) | plant injury at 31 g/ha [2, 8] | plant injury at 62 g/ha [2, 9] | plant injury at 125 g/ha [2, 10] | pest or weed control at 16 g/ha [3, 11] | pest or weed control at 31 g/ha ([3]; 31 g ai/ha) | pest or weed control at 62 g/ha ([3]; 62 g ai/ha) | pest or weed control at 125 g/ha ([3]; 125 g ai/ha) | Plant response rating, Russian Thistle [4, 11] | Plant response rating, Russian Thistle [4, 12] | Plant response rating, Russian Thistle ([4]; 125 g ai/ha, scale 0-100) | pest or weed control at 31 g/ha [5, 13] | pest or weed control at 62 g/ha [5, 14] | pest or weed control at 125 g/ha [5, 15] | also measured
1 | Fc1cccc(Oc2ncc(Cl)cn2)c1-n1cc(C(F)F)nn1 [Compound 141, 5-chloro-2-[2-[4-(difluoromethyl)-1H-1,2,3-triazol-1-yl]-3-fluorophenoxy]pyrimidine] | 40 | 40 | 85 | 95 | 75% | 95% | 100% | 100% | 100% | 100% | 100% | 100% | 15 | 50 | 100 | 75% | 85% | 95% | Plant response rating, Russian Thistle ([4]; 62 g ai/ha, scale 0-100): 75; pest or weed control at 16 g/ha ([5]; Viola arvensis, post-emergence, 16 g ai/ha, scale 0-100, read-out: Plant response rating, Field Violet): 45%
2 | Clc1cnc(Oc2cccc(Cl)c2-n2cc(I)cn2)nc1 [Compound 181] |  |  |  |  |  |  |  |  |  |  |  |  |  |  |  |  |  |  | Plant response rating, Horseweed ([6]; Postemergence, 31 g ai/ha, scale 0 to 100): 0; Plant response rating, Horseweed ([6]; Postemergence, 62 g ai/ha, scale 0 to 100): 5; Plant response rating, Horseweed ([6]; Postemergence, 125 g ai/ha, scale 0 to 100): 5; Plant response rating, Horseweed ([6]; postemergence, 16 g ai/ha, scale 0 to 100, 0 no effect, 100 complete control): 0
3 | FCc1cccc(Oc2ncc(Cl)cn2)c1-n1cc(I)cn1 [Compound 245] | 55 | 75 | 70 | 80 |  |  |  |  |  |  |  |  | 5 | 10 | 70 |  |  |  | Plant response rating, Oilseed Rape ([2]; 16 g ai/ha, scale 0-100): 30; Plant response rating, Oilseed Rape [2, 8]: 45; Plant response rating, Oilseed Rape [2, 9]: 60; Plant response rating, Oilseed Rape [2, 10]: 75; Plant response rating, Buckwheat, Wild [3, 11]: 25; Plant response rating, Buckwheat, Wild ([3]; 31 g ai/ha, scale 0-100): 0; Plant response rating, Buckwheat, Wild ([3]; 62 g ai/ha, scale 0-100): 25; Plant response rating, Buckwheat, Wild ([3]; 125 g ai/ha, scale 0-100): 35; Plant response rating, Field Violet ([5]; 16 g ai/ha, scale 0-100): 25; Plant response rating, Field Violet [5, 8]: 80; Plant response rating, Field Violet [5, 9]: 90; Plant response rating, Field Violet [5, 10]: 90
4 | N#Cc1cccc(Oc2ncc(Cl)cn2)c1-n1cc(OCC(F)(F)F)cn1 [Compound 274, 3-[(5-chloro-2-pyrimidinyl)oxy]-2-[4-(2,2,2-trifluoroethoxy)-1H-pyrazol-1-yl]benzonitrile] |  |  |  |  | 40% | 55% | 65% | 75% | 10% | 100% | 100% | 100% |  |  |  | 75% | 70% | 85% | Plant response rating, Ryegrass, Italian ([7]; 16 g ai/ha): 35; Plant response rating, Ryegrass, Italian ([7]; 31 g ai/ha): 40; Plant response rating, Ryegrass, Italian ([7]; 62 g ai/ha): 70; Plant response rating, Ryegrass, Italian ([7]; 125 g ai/ha): 75; Plant response rating, Ryegrass, Italian ([7]; 250 g ai/ha): 100
